Laboratory results from publication PMC10443802, “Targeting a xenobiotic transporter to ameliorate vincristine-induced sensory neuropathy” (JCI Insight, 2023).
“And” between values parts separate entries of the source, which are not always exact repeats. Equal values may be shown once.

What was measured:
hOATP1B1 = biological target: T1, hOATP1B1 (Homo sapiens, UniProt Q9Y6L6); test: Inhibition of EβG uptake in HEK293 cells overexpressing hOATP1B1; conditions: inhibitor 10 μM, 15-min pre-incubation
T1 sequence (Q9Y6L6 1-691): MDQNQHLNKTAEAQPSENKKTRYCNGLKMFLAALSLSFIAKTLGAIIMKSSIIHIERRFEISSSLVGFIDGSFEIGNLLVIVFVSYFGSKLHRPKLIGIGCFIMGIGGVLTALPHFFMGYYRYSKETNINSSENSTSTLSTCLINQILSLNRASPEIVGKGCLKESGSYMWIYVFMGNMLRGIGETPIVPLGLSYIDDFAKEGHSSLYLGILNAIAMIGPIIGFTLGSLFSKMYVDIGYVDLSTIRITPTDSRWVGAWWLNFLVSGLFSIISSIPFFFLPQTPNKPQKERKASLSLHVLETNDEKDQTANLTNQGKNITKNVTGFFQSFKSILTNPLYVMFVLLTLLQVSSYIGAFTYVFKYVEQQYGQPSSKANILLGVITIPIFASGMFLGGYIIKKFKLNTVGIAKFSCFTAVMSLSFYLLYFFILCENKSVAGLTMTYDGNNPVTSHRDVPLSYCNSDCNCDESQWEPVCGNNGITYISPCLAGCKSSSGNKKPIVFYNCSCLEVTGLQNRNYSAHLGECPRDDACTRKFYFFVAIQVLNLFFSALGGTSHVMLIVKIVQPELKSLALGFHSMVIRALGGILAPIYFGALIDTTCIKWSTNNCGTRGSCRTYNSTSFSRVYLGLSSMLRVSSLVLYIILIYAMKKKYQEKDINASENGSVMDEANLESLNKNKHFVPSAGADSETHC

mOATP1B2 = biological target: T2, mOATP1B2 (Mus musculus, UniProt Q9JJL3); test: Inhibition of EβG uptake in HEK293 cells overexpressing mOATP1B2; type: cell-based; conditions: HEK293 mOATP1B2; inhibitor 10 μM, 15-min pre-incubation
T2 sequence (Q9JJL3 1-689): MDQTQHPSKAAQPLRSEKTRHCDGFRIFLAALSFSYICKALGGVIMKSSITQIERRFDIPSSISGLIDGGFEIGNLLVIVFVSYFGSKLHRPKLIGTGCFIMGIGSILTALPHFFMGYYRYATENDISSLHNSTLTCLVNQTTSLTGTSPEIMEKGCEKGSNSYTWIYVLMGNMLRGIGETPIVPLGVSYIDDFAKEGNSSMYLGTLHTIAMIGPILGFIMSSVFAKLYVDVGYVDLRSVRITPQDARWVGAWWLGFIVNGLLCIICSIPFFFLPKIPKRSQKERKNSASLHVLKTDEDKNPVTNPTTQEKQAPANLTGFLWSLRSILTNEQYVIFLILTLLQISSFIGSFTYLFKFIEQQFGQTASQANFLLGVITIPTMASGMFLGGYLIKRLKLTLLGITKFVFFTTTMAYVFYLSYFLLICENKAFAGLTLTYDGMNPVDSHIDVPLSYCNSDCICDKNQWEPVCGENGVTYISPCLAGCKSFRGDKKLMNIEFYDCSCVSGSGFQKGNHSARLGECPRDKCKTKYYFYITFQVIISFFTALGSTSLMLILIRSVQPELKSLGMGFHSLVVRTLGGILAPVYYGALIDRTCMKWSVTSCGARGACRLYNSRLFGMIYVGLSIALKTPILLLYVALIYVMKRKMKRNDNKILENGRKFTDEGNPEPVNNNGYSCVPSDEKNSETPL

[1] = Plasma pharmacokinetics of vincristine in mice; conditions: for concentration at 1 h / concentration at 4 h / concentration at 0.5 h / concentration at 0.25 h / AUC(0-t) / Cmax / concentration at 2 h: mouse, in vivo; for AUC(0-t) / Cmax: male; for AUC(0-t): AUC0-4h
Protocol: were collected at the final time point. […]
specimens were stored at -80°C until further processing. […]
stainless steel bead (Qiagen) and processed for 4 min at 40 Hz. Finally, the beads were removed, and the homogenized samples were stored at -80°C until analysis by LC-MS/MS.
Pharmacokinetic parameters were calculated by non -compartmental analysis using Phoenix WinNonlin version 8.0 (Certara). Peak plasma concentration (C max) was determined by visual inspection of the data from the concentration-time curves. The linear trapezoidal rule was used to obtain the area under the plasma concentration-time curve (AUC), and drug levels in tissues were corrected for […]
Determination of drug levels.
Quantiva triple quadrupole mass spectrometer from Thermo Fisher Scientific was used for LC-MS/MS […]
column was maintained at 50°C. […]
quantification was 5 ng/mL.
450 °C. […] Precursor molecular ions and […]
dose of 4 mg/kg. […] The sample
Morphologic and morphometric evaluation. […]
for light microscopy and morphometric analysis.

[2] = DBA/1LacJ, ip, 1 mg/kg, Plasma concentration of vincristine
[3] = ip, 1 mg/kg, Plasma concentration of vincristine

Cc1cn(-c2cc(NC(=O)c3ccc(C)c(Nc4nccc(-c5cccnc5)n4)c3)cc(C(F)(F)F)c2)cn1 [Nilotinib, nilotinib]
EβG uptake (% of vehicle) (hOATP1B1): 9.108 % of vehicle and 9.828 % of vehicle and 15.7637 % of vehicle | EβG uptake (% of vehicle) (mOATP1B2): 37.5921 % of vehicle and 30.8257 % of vehicle and 32.2185 % of vehicle

CC[C@]1(O)C[C@H]2CN(CCc3c([nH]c4ccccc34)[C@@](C(=O)OC)(c3cc4c(cc3OC)N(C=O)[C@H]3[C@@](O)(C(=O)OC)[C@H](OC(C)=O)[C@]5(CC)C=CCN6CC[C@]43[C@@H]65)C2)C1 [Vincristine, vincristine]
concentration at 1 h ([1]; DBA/1LacJ, 1 mg/kg, Plasma concentration of vincristine, OATP1B2(-/-) + Vehicle, vincristine 1 mg/kg, 1 h): 0.0884 µg/mL | concentration at 4 h ([1]; DBA/1LacJ, 1 mg/kg, Plasma concentration of vincristine, OATP1B2(-/-) + Vehicle, vincristine 1 mg/kg, 4 h): 0.0655 µg/mL | concentration at 0.5 h ([1]; DBA/1LacJ, Plasma concentration of vincristine, OATP1B2(-/-) + Nilotinib (100 mg/kg pretreatment), vincristine 1 mg/kg, 0.5 h): 0.225 µg/mL | concentration at 1 h ([1]; DBA/1LacJ, Plasma concentration of vincristine, OATP1B2(-/-) + Nilotinib (100 mg/kg pretreatment), vincristine 1 mg/kg, 1 h): 0.108 µg/mL | concentration at 0.25 h [1, 2]: 0.707 µg/mL | concentration at 0.5 h [1, 2]: 0.599 µg/mL | concentration at 1 h [1, 2]: 0.315 µg/mL | concentration at 4 h [1, 2]: 0.0909 µg/mL | Plasma concentration of Vincristine ([1]; Wild-type mice, 2 h): 0.1041 µg/mL | AUC(0-t) ([1]; DBA/1LacJ, ip, 1 mg/kg): 1.29 ± 0.0498 µg·h/mL | Cmax ([1]; DBA/1LacJ, ip, 1 mg/kg): 1.13 ± 0.148 µg/mL | AUC(0-t) ([1]; ip, 1 mg/kg): 1.06 ± 0.0362 µg·h/mL | Cmax ([1]; ip, 1 mg/kg): 1.19 ± 0.113 µg/mL | concentration at 1 h ([1]; 1 mg/kg, Plasma concentration of Vincristine (ng/mL), OATP1A/1B(-/-) mice, 1 h): 0.195 µg/mL | concentration at 2 h ([1]; 1 mg/kg, Plasma concentration of Vincristine (ng/mL), OATP1A/1B(-/-) mice, 2 h): 0.0899 µg/mL | concentration at 2 h ([1]; 1 mg/kg, Plasma concentration of Vincristine (ng/mL), Wild-type mice, 2 h): 0.113 µg/mL | concentration at 1 h ([1]; 1 mg/kg, Plasma concentration of vincristine, Wild-type + Vehicle, vincristine 1 mg/kg, 1 h): 0.116 µg/mL | concentration at 0.5 h ([1]; Plasma concentration of vincristine, Wild-type + Nilotinib (100 mg/kg pretreatment), vincristine 1 mg/kg, 0.5 h): 0.124 µg/mL | concentration at 1 h ([1]; Plasma concentration of vincristine, Wild-type + Nilotinib (100 mg/kg pretreatment), vincristine 1 mg/kg, 1 h): 0.104 µg/mL | concentration at 0.25 h [1, 3]: 0.735 µg/mL | concentration at 0.5 h [1, 3]: 0.376 µg/mL | concentration at 1 h [1, 3]: 0.273 µg/mL | concentration at 4 h [1, 3]: 0.114 µg/mL | concentration at 4 h ([1]; ip, 1 mg/kg, Plasma concentration of vincristine, Wild-type mice, 1 mg/kg i.p., 4 h): 0.102 µg/mL
